Reference: article PMC5438088 (ChemMedChem, 2015)
“And” between values parts separate entries of the source, which are not always exact repeats. Equal entries are not always repeated. Where two headings read alike, the source gives them in different places.

Columns and labels:
hcSHMT [1] = molecular target: T1, hcSHMT (Homo sapiens, UniProt P34896); assay type: binding
T1 sequence (P34896 1-483): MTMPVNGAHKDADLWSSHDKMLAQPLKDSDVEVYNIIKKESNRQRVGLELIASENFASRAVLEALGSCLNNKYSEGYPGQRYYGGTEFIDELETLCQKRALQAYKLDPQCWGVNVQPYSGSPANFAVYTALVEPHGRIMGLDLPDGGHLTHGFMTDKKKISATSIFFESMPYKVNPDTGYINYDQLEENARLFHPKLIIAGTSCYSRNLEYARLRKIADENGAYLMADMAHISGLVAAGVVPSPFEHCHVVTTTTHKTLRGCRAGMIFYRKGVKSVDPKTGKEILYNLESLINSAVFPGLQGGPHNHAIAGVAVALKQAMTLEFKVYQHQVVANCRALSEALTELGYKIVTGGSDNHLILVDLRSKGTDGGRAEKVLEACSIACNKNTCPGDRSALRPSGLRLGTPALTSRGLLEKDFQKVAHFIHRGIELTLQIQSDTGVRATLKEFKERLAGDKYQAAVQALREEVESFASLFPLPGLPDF

SHMT = details: cited from earlier work
hcSHMT [2] = molecular target: T1, hcSHMT; assay: Isothermal titration calorimetry; assay type: binding; details: ITC, 25°C, 10 mM glycine

## Nc1nc2c(c(=O)[nH]1)N(C=O)C(CNc1ccc(C(=O)N[C@@H](CCC(=O)O)C(=O)O)cc1)CN2 (stereo partly shown) [Leucovorin, 5-formyltetrahydrofolate]
hcSHMT [1]
  Kd: 1500 nM
SHMT; both SHMT isoforms
  inhibition of SHMT: potent, low-micromolar inhibitor
hcSHMT [2]
  n (binding stoichiometry): 0.51±0.03
  ΔH (heat of binding): 4.64 ± 0.39 kcal/mol
  ΔS: 42.4 cal mol^−1/deg
  Kd: 1360 ± 490 nM

## Nc1nc2c(c(=O)[nH]1)C[C@@H](CCc1ccc(C(=O)N[C@@H](CCC(=O)O)C(=O)O)cc1)CN2 [Lometrexol]
hcSHMT [1]; with respect to leucovorin, double reciprocal plot
  inhibition mechanism: competitive inhibitor
hcSHMT [2]
  ΔH (heat of binding): 3.50 ± 0.06 kcal/mol
  ΔS: 38.0 cal mol^−1/deg
  Kd: 2000 nM and 1990 nM
hcSHMT [2]; listed as LTX
  n (binding stoichiometry): 0.53±0.05

## CC1(C)N=C(N)N=C(N)N1c1ccc(CCCCc2ccc(S(=O)(=O)F)cc2Cl)c(Cl)c1.CCS(=O)(=O)O [NSC127755]
SHMT
  inhibition of SHMT: irreversible inhibitor

## Nc1nc2[nH]cc(CCc3ccc(C(=O)N[C@@H](CCC(=O)O)C(=O)O)cc3)c2c(=O)[nH]1 [Pemetrexed, (S)-2-[4-[2-(4-amino-2-oxo-3,5,7-triazabicyclo[4.3.0]nona-3,8,10-trien-9-yl)ethyl]benzoyl] aminopentanedioic acid]
SHMT; hcSHMT
  inhibition of hcSHMT: low micromolar inhibitor
